Residues, ends and D or L forms follow the SMILES beside them.
Target: T1, hCOX-1 (Homo sapiens, UniProt P23219)
T1 construct: COX-1 from human platelet microsomes; from tissue; host or cells: human platelets (microsomes) from donor buffy coat
Assay: hCOX activity, TMPD oxidation with AA as substrate, COX-1 from human platelet microsomes
Format: biochemical
Conditions: means ± SEM from five experiments; *** = no active at 500 μM
Description: Washed human platelets were prepared from blood anticoagulated with citrate-phosphate-dextrose, which was obtained from Centro de Transfusion de Galicia (Santiago de Compostela, Spain).
The upper layer containing platelets (platelet-rich plasma) was removed and centrifuged at 1000 g for 18 min. The resulting platelet pellet was recovered, resuspended with washing buffer, and centrifuged again at 1000 g for 15 min. Finally, the platelet pellet from this step was resuspended in a modified Tyrode-HEPES buffer (HEPES 10 mM; NaCl 140 mM; KCl 3 mM; MgCl2 0.5 mM; NaHCO3 5 mM; glucose 10 mM; pH 7.4) to afford a cell density of 3–3.5·10^8 platelet/mL. The calcium concentration in the extracellular medium was 2 mM [13].
(§1) The potential effects of the test drugs on total hCOX activity (bis-dioxygenase and peroxidase reactions) were investigated by measuring their effects on the oxidation of N,N,N′,N′-tetramethyl-p-phenylenediamine (TMPD) to […], using AA as common substrate for both hCOX-1 and hCOX-2, microsomal COX-2 prepared from insect cells (Sf21 cells) infected with recombinant baculovirus containing cDNA inserts for hCOX-2 (Sigma Aldrich Química S.A., Alcobendas, Spain), and COX-1 from human platelet microsomes (obtained as described in the above paragraph since, unlike hCOX-2, hCOX-1 is not available commercially).
(§2) Results shown in Table 3 are expressed as means ± SEM from five experiments. Means were compared by one-way analysis of variance (ANOVA) followed by Dunnett's post-hoc test.
(§3) This regression was performed using the data obtained with 4–6 different concentrations of each compound assayed, which inhibited the enzymatic activity of COX control isoform between 20 and 80%.

T1 sequence (P23219 24-599): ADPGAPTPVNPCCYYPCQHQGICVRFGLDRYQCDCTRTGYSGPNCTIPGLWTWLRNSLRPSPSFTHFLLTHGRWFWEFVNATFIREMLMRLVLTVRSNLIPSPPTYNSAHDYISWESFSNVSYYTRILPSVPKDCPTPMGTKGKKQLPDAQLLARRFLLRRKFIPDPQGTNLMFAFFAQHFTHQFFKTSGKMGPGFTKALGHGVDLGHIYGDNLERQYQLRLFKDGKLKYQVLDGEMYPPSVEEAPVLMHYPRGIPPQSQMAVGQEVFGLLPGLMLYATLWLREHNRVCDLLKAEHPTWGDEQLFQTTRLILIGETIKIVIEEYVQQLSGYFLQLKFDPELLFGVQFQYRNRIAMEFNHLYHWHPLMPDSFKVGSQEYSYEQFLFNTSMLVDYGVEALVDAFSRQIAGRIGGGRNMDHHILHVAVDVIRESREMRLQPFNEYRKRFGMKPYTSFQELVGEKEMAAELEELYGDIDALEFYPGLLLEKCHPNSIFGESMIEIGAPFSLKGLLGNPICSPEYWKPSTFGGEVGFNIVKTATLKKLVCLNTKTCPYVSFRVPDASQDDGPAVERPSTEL

Molecule	IC50 [µM]
COc1ccc(-c2nc(C(=O)N3CCN(C)CC3)sc2-c2ccc(OC)cc2)cc1 [FR122047, reference compound]	93.8 ± 6.55
CSCC[C@H](NC(=O)CN)C(=O)N[C@@H](CC(=O)O)C(=O)O [Peptide S1, Gly-Met-Asp] (H-Gly-Met-Asp-OH)	150 ± 2.34
C[C@H](NC(=O)[C@H](CCCNC(=N)N)NC(=O)[C@@H](N)CCC(=O)O)C(=O)O [Peptide S2, ERA] (H-Glu-Arg-Ala-OH)	143 ± 2.57
NCC(=O)N[C@@H](Cc1c[nH]cn1)C(=O)N[C@@H](CCC(=O)O)C(=O)O [Peptide S3, Gly-His-Glu] (H-Gly-His-Glu-OH)	152 ± 5.18
N=C(N)NCCC[C@H](NC(=O)[C@H](CCC(=O)O)NC(=O)CN)C(=O)O [Peptide S4, GER] (H-Gly-Glu-Arg-OH)	99.3 ± 1.14
N=C(N)NCCC[C@H](NC(=O)[C@@H](N)CC(=O)O)C(=O)N[C@@H](CS)C(=O)O [Peptide S5, DRC] (H-Asp-Arg-Cys-OH)	161 ± 2.57
C[C@H](N)C(=O)N[C@@H](CCCNC(=N)N)C(=O)N[C@@H](C)C(=O)O [Peptide S6, ARA] (H-Ala-Arg-Ala-OH)	102 ± 1.14
N=C(N)NCCC[C@H](NC(=O)[C@H](CCC(=O)O)NC(=O)[C@@H]1CCCN1)C(=O)O [Peptide S7, PER] (H-Pro-Glu-Arg-OH)	100 ± 2.19
CC[C@H](C)[C@H](NC(=O)[C@H](Cc1c[nH]cn1)NC(=O)[C@@H](N)CCCCN)C(=O)O [Peptide S8, KHI] (H-Lys-His-Ile-OH)	122 ± 3.78
C[C@H](N)C(=O)N[C@@H](CCC(=O)O)C(=O)N[C@@H](CCCNC(=N)N)C(=O)O [Peptide S9, AER] (H-Ala-Glu-Arg-OH)	221.6 ± 1.04
C[C@H](N)C(=O)NCC(=O)N[C@@H](CCCNC(=N)N)C(=O)O [Peptide S10, AGR] (H-Ala-Gly-Arg-OH)	99.1 ± 1.55

System: COX-2
Assay: not given
Design: method as in PMID 17640617
Conditions: ELISA test; cited from earlier work

Molecule	inhibition of COX-2 activity
WCS	more than 85%

Target: T2, hCOX-2 (Homo sapiens, UniProt P35354)
T2 construct: purchased Sigma Aldrich Química S.A., Alcobendas, Spain; host or cells: Sf21 insect cells infected with recombinant baculovirus
T2 sequence (P35354 18-604): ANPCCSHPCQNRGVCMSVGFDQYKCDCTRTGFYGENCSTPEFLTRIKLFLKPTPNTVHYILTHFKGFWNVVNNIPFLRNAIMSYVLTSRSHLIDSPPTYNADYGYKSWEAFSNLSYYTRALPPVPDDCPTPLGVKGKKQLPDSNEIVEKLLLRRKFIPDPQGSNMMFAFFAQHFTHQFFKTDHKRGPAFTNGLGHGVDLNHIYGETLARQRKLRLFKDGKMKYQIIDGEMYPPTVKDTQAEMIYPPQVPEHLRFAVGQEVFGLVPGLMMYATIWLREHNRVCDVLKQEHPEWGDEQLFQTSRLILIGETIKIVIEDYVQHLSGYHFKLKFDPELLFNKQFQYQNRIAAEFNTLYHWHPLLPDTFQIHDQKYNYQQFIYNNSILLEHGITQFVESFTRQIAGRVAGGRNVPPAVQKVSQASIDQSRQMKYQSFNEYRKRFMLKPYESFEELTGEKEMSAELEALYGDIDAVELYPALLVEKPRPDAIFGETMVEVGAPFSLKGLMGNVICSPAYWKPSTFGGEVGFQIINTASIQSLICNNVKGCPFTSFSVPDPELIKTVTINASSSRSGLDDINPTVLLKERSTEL
Assay: hCOX activity, TMPD oxidation with AA as substrate, microsomal recombinant hCOX-2 from Sf21 insect cells
Format: biochemical
Conditions: COX-2 over COX-1; bounds use the highest concentration tested
From the text: as §1, §2, §3

Molecule	Ratio, index of selectivity SI = [IC50(COX-2)]/[IC50(COX-1)]
CSCC[C@H](NC(=O)CN)C(=O)N[C@@H](CC(=O)O)C(=O)O [Peptide S1, Gly-Met-Asp] (H-Gly-Met-Asp-OH)	0.6255
C[C@H](NC(=O)[C@H](CCCNC(=N)N)NC(=O)[C@@H](N)CCC(=O)O)C(=O)O [Peptide S2, ERA] (H-Glu-Arg-Ala-OH)	0.8443
NCC(=O)N[C@@H](Cc1c[nH]cn1)C(=O)N[C@@H](CCC(=O)O)C(=O)O [Peptide S3, Gly-His-Glu] (H-Gly-His-Glu-OH)	0.6225
N=C(N)NCCC[C@H](NC(=O)[C@H](CCC(=O)O)NC(=O)CN)C(=O)O [Peptide S4, GER] (H-Gly-Glu-Arg-OH)	0.8111
N=C(N)NCCC[C@H](NC(=O)[C@@H](N)CC(=O)O)C(=O)N[C@@H](CS)C(=O)O [Peptide S5, DRC] (H-Asp-Arg-Cys-OH)	0.6195
C[C@H](N)C(=O)N[C@@H](CCCNC(=N)N)C(=O)N[C@@H](C)C(=O)O [Peptide S6, ARA] (H-Ala-Arg-Ala-OH)	0.8914
N=C(N)NCCC[C@H](NC(=O)[C@H](CCC(=O)O)NC(=O)[C@@H]1CCCN1)C(=O)O [Peptide S7, PER] (H-Pro-Glu-Arg-OH)	0.8792
CC[C@H](C)[C@H](NC(=O)[C@H](Cc1c[nH]cn1)NC(=O)[C@@H](N)CCCCN)C(=O)O [Peptide S8, KHI] (H-Lys-His-Ile-OH)	0.7484
C[C@H](N)C(=O)NCC(=O)N[C@@H](CCCNC(=N)N)C(=O)O [Peptide S10, AGR] (H-Ala-Gly-Arg-OH)	0.7991

Same assay, conditions: means ± SEM from five experiments; *** = no active at 500 μM; read-out: COX-2 (IC50)

Molecule	IC50 [µM]
COc1ccc(-c2nc(C(=O)N3CCN(C)CC3)sc2-c2ccc(OC)cc2)cc1 [FR122047, reference compound]	> 500
CSCC[C@H](NC(=O)CN)C(=O)N[C@@H](CC(=O)O)C(=O)O [Peptide S1, Gly-Met-Asp] (H-Gly-Met-Asp-OH)	94 ± 2.59
C[C@H](NC(=O)[C@H](CCCNC(=N)N)NC(=O)[C@@H](N)CCC(=O)O)C(=O)O [Peptide S2, ERA] (H-Glu-Arg-Ala-OH)	121 ± 2.33
NCC(=O)N[C@@H](Cc1c[nH]cn1)C(=O)N[C@@H](CCC(=O)O)C(=O)O [Peptide S3, Gly-His-Glu] (H-Gly-His-Glu-OH)	94.9 ± 2.12
N=C(N)NCCC[C@H](NC(=O)[C@H](CCC(=O)O)NC(=O)CN)C(=O)O [Peptide S4, GER] (H-Gly-Glu-Arg-OH)	80.6 ± 2.14
N=C(N)NCCC[C@H](NC(=O)[C@@H](N)CC(=O)O)C(=O)N[C@@H](CS)C(=O)O [Peptide S5, DRC] (H-Asp-Arg-Cys-OH)	100 ± 2.33
C[C@H](N)C(=O)N[C@@H](CCCNC(=N)N)C(=O)N[C@@H](C)C(=O)O [Peptide S6, ARA] (H-Ala-Arg-Ala-OH)	91.2 ± 2.41
N=C(N)NCCC[C@H](NC(=O)[C@H](CCC(=O)O)NC(=O)[C@@H]1CCCN1)C(=O)O [Peptide S7, PER] (H-Pro-Glu-Arg-OH)	88.2 ± 3.01
CC[C@H](C)[C@H](NC(=O)[C@H](Cc1c[nH]cn1)NC(=O)[C@@H](N)CCCCN)C(=O)O [Peptide S8, KHI] (H-Lys-His-Ile-OH)	91.7 ± 2.98
C[C@H](N)C(=O)N[C@@H](CCC(=O)O)C(=O)N[C@@H](CCCNC(=N)N)C(=O)O [Peptide S9, AER] (H-Ala-Glu-Arg-OH)	68.3 ± 5.43
C[C@H](N)C(=O)NCC(=O)N[C@@H](CCCNC(=N)N)C(=O)O [Peptide S10, AGR] (H-Ala-Gly-Arg-OH)	79.2 ± 2.15

Source: PMC3600326, “Design, Synthesis, and Evaluation of New Tripeptides as COX-2 Inhibitors” (Journal of Amino Acids, 2013)
